In patent US20240398732A1, “Treating Cancers with Combinations of Spironolactone and Acylfulvenes” (LANTERN PHARMA INC., priority 2021, published 2024):
“Also recorded” adds a separate entry of the source. Where two headings read alike, the source gives them in different places.

Tests used:
[1] = system: U87 (glioblastoma cell line); test: U87 cell growth / survival / viability in vitro; assay type: cell-based; details: for IC50: Homo sapiens, U-87 MG
[2] = system: U87, M1123 and Mayo39 glioblastoma cultures; test: GBM cell viability, pooled statement on IC50 shift; assay type: cell-based; details: with 5 μM Spironolactone
[3] = system: subcutaneous U87 xenograft tumors; test: Subcutaneous U87 xenograft in SCID mice; details: Spironolactone 25 mg/kg i.p. 5 days per week from day 8; LP-184 4 mg/kg i.v. every other day for 4 doses from day 9
Method: (§1) SCID mice bearing pre-established subcutaneous U87 xenograft tumors were treated with Spironolactone alone, LP-184 alone or their combination. Spironolactone treatment began on post implantation day 8 at 25 mg/kg intraperitoneally 5 days per week, and LP-184 on day 9 at 4 mg/kg intravenously every other day for 4 doses.

[4] = system: M1123 (glioblastoma cell line); test: M1123 cell viability in vitro; assay type: cell-based
[5] = system: subcutaneous U87 xenograft tumors; details: beginning on ~day 25
Method: as §1

[6] = system: Mayo39 (Glioblastoma cell line); test: Mayo39 cell viability in vitro; assay type: cell-based
[7] = system: RPMI 8226 human myeloma cell lines; test: RPMI 8226 cell growth / cytotoxicity in vitro; assay type: cell-based
[8] = molecular target: T1, ERCC3 (Homo sapiens, UniProt P19447); test: ERCC3 western blot in glioblastoma cell lines; assay type: cell-based; details: 10 μM spironolactone, over 24-72 hours
T1 construct: endogenous in cells; host or cells: M1123, Mayo39, U87 glioblastoma cell lines
T1 sequence (P19447 1-782): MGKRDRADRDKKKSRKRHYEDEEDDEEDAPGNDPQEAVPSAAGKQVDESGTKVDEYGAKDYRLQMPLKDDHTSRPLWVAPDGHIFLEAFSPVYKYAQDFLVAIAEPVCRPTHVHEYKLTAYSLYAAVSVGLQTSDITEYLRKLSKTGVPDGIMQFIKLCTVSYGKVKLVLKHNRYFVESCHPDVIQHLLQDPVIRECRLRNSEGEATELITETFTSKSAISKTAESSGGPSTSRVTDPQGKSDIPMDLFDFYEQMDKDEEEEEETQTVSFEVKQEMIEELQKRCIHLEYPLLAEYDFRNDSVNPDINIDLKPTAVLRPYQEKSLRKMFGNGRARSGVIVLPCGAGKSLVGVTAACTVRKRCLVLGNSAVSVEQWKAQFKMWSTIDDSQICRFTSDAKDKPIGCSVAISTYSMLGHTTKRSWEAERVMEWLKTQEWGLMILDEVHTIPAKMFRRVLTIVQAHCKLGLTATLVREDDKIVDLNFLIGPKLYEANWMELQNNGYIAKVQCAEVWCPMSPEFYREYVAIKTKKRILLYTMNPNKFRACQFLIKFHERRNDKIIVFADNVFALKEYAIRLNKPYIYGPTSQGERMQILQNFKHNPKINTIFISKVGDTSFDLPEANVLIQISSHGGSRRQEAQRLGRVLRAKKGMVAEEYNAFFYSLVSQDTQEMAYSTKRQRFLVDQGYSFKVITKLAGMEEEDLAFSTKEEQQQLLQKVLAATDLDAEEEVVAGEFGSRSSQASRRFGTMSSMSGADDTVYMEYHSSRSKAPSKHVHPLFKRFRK
Method: Representative images show quantification of ERCC3 western blot intensity with significant Spironolactone-mediated ERCC3 downregulation over 24-72 hours in different glioblastoma cell lines.

[9] = system: CAKI-2 (papillary renal cell carcinoma cell line); test: CAKI-2 cell growth / survival in vitro; assay type: cell-based; details: spironolactone alone
[10] = system: 22RV1 (prostate cell line); test: 22RV1 cell growth / survival in vitro; assay type: cell-based; details: 10 μM spironolactone alone
[11] = system: CHLA-06 (atypical teratoid rhabdoid tumor cell line); test: CHLA-06 cell growth / survival in vitro; assay type: cell-based; details: spironolactone alone (10 μM)
[12] = system: ACHN (renal cell carcinoma cell line); test: ACHN cell growth / survival in vitro; assay type: cell-based; details: 10 μM spironolactone alone
[13] = LP-184 alone, read-out: LP-184 alone IC50 [mean value
[14] = with 5 uM Spironolactone, read-out: LP-184 IC50 [mean value, nM] in combination with 5 uM Spironolactone

CC1=C(CN(O)C(N)=O)C2=C(C)C3(CC3)[C@@](C)(O)C(=O)C2=C1 [LP-184, (−)-hydroxyureamethyl acylfulvene]
IC50 [1, 13]: 250 nM
IC50 [1, 14]: 37.6 nM
decrease in LP-184 IC50s [2]: 3-6 fold
tumor growth / tumor regression [3]: complete or near complete tumor regression
IC50 [4, 13]: 151 nM
IC50 [4, 14]: 39.7 nM
tumor regrowth (animals) [5]: 5/5
IC50 [6, 13]: 313 nM
IC50 [6, 14]: 94.3 nM

CC1=C(CN(O)C(N)=O)C2=C(C)C3(CC3)[C@](C)(O)C(=O)C2=C1 [LP-284, (+)-hydroxyureamethyl acylfulvene]
reduction of LP-284 IC50 ([7]; by 10 μM spironolactone): 2.4 fold

CC(=O)SC1CC2=CC(=O)CCC2(C)C2CCC3(C)C(CCC34CCC(=O)O4)C12 (stereo not drawn) [Spironolactone, 7α-Acetylthiospirolactone]
growth rates ([1]; spironolactone alone): did not substantially change the growth rates
cytotoxicity ([7]; 10 μM spironolactone treatment alone): did not cause cytotoxicity
tumor growth / tumor regression [3]: no effect on tumor growth
ERCC3 protein level (western blot) ([8]; M1123): time-dependent depletion
ERCC3 protein level (western blot) ([8]; Mayo39): time-dependent depletion
ERCC3 protein level (western blot) ([8]; U87): time-dependent depletion
growth rates [9]: did not substantially change the growth rates
cell growth rates [10]: did not change the cell growth rates
growth rates [11]: did not substantially change the growth rates; also recorded: did not change the cell growth rates
cell growth rates [12]: did not change the cell growth rates
